COc1cc([N+](=O)[O-])c(OC)cc1Cl
Conditions	solubility (mole fraction)
in ethanol, 276.95 K	0.00042
in ethanol, 281.05 K	0.000522
in ethanol, 285.25 K	0.000644
in ethanol, 288.25 K	0.000757
in ethanol, 291.45 K	0.000892
in ethanol, 295.75 K	0.00109
in ethanol, 300.15 K	0.00135
in ethanol, 305.55 K	0.00172
in ethanol, 310.45 K	0.00219
in ethanol, 314.85 K	0.00274
in ethanol, 319.65 K	0.0034
in ethanol, 323.65 K	0.00409
in ethanol, 327.25 K	0.0048
in ethanol, 330.25 K	0.00558
in ethanol, 333.35 K	0.00649
in ethanol, 336.65 K	0.00764
in ethanol, 340.45 K	0.00921
in m-xylene, 277.05 K	0.00728
in m-xylene, 279.95 K	0.00788
in m-xylene, 283.15 K	0.00872
in m-xylene, 286.15 K	0.00994
in m-xylene, 290.05 K	0.0118
in m-xylene, 295.35 K	0.0146
in m-xylene, 300.75 K	0.0178
in m-xylene, 305.05 K	0.0209
in m-xylene, 308.85 K	0.024
in m-xylene, 312.15 K	0.0272
in m-xylene, 315.45 K	0.0305
in m-xylene, 318.55 K	0.0341
in m-xylene, 321.75 K	0.0382
in m-xylene, 325.05 K	0.0432
in m-xylene, 328.45 K	0.049
in m-xylene, 332.05 K	0.0561
in m-xylene, 335.35 K	0.0645
in m-xylene, 338.95 K	0.0747
in methanol, 279.35 K	0.000449
in methanol, 282.75 K	0.000517
in methanol, 285.55 K	0.000598
in methanol, 288.85 K	0.000716
in methanol, 293.45 K	0.000895
in methanol, 297.55 K	0.00109
in methanol, 301.75 K	0.00131
in methanol, 305.85 K	0.00156
in methanol, 309.55 K	0.00187
in methanol, 313.25 K	0.00223
in methanol, 316.85 K	0.00266
in methanol, 320.75 K	0.00318
in methanol, 324.85 K	0.00383
in methanol, 329.05 K	0.00464
in o-xylene, 277.75 K	0.00864
in o-xylene, 280.45 K	0.00956
in o-xylene, 283.55 K	0.0107
in o-xylene, 287.05 K	0.0123
in o-xylene, 291.45 K	0.0145
in o-xylene, 296.25 K	0.0174
in o-xylene, 301.25 K	0.0209
in o-xylene, 305.65 K	0.0245
in o-xylene, 309.45 K	0.0283
in o-xylene, 313.25 K	0.0323
in o-xylene, 316.85 K	0.0367
in o-xylene, 320.55 K	0.0418
in o-xylene, 323.95 K	0.0476
in o-xylene, 327.55 K	0.0544
in o-xylene, 331.35 K	0.0624
in o-xylene, 335.25 K	0.0719
in o-xylene, 339.35 K	0.0831
in p-xylene, 289.55 K	0.0126
in p-xylene, 293.65 K	0.0145
in p-xylene, 297.55 K	0.0168
in p-xylene, 301.95 K	0.0198
in p-xylene, 306.15 K	0.023
in p-xylene, 310.25 K	0.0266
in p-xylene, 313.85 K	0.0304
in p-xylene, 317.55 K	0.0347
in p-xylene, 321.15 K	0.0396
in p-xylene, 324.65 K	0.0454
in p-xylene, 328.45 K	0.0522
in p-xylene, 332.35 K	0.0604
in p-xylene, 336.65 K	0.07
in toluene, 277.45 K	0.00969
in toluene, 280.55 K	0.0107
in toluene, 283.85 K	0.0122
in toluene, 287.85 K	0.0145
in toluene, 293.05 K	0.0178
in toluene, 297.95 K	0.0211
in toluene, 301.85 K	0.0241
in toluene, 305.35 K	0.0273
in toluene, 308.75 K	0.0308
in toluene, 312.35 K	0.0347
in toluene, 315.85 K	0.0393
in toluene, 319.45 K	0.045
in toluene, 323.45 K	0.052
in toluene, 327.75 K	0.061
in toluene, 332.75 K	0.0726
in toluene, 337.35 K	0.0852

COc1cc(Cl)c(OC)cc1N
Conditions	solubility (mole fraction)
in ethanol, 279.35 K	0.00274
in ethanol, 282.65 K	0.00327
in ethanol, 286.45 K	0.00386
in ethanol, 289.55 K	0.00447
in ethanol, 292.15 K	0.00497
in ethanol, 295.55 K	0.00579
in ethanol, 299.45 K	0.00695
in ethanol, 303.05 K	0.00821
in ethanol, 305.85 K	0.00938
in ethanol, 310.25 K	0.0115
in ethanol, 313.95 K	0.0137
in ethanol, 317.65 K	0.0164
in ethanol, 321.55 K	0.0201
in ethanol, 325.05 K	0.024
in ethanol, 328.65 K	0.0289
in ethanol, 331.55 K	0.0344
in ethanol, 335.25 K	0.0416
in m-xylene, 277.35 K	0.00495
in m-xylene, 281.85 K	0.00615
in m-xylene, 286.05 K	0.00739
in m-xylene, 289.95 K	0.00877
in m-xylene, 292.85 K	0.0103
in m-xylene, 296.25 K	0.012
in m-xylene, 299.35 K	0.0139
in m-xylene, 302.35 K	0.016
in m-xylene, 305.55 K	0.0186
in m-xylene, 309.25 K	0.0219
in m-xylene, 312.75 K	0.0262
in m-xylene, 316.95 K	0.0318
in m-xylene, 321.25 K	0.0386
in m-xylene, 325.05 K	0.0466
in m-xylene, 328.65 K	0.0561
in m-xylene, 332.35 K	0.0669
in m-xylene, 335.65 K	0.0791
in methanol, 278.05 K	0.00282
in methanol, 282.45 K	0.00342
in methanol, 285.85 K	0.00399
in methanol, 289.45 K	0.00465
in methanol, 292.75 K	0.0054
in methanol, 296.65 K	0.00634
in methanol, 299.85 K	0.00734
in methanol, 303.35 K	0.00852
in methanol, 306.55 K	0.0099
in methanol, 309.95 K	0.0115
in methanol, 313.45 K	0.0134
in methanol, 316.45 K	0.0156
in methanol, 319.35 K	0.0181
in methanol, 322.45 K	0.0212
in methanol, 325.45 K	0.0247
in methanol, 328.85 K	0.0289
in o-xylene, 278.25 K	0.0058
in o-xylene, 281.85 K	0.00699
in o-xylene, 285.55 K	0.00831
in o-xylene, 289.15 K	0.00989
in o-xylene, 292.75 K	0.0117
in o-xylene, 296.05 K	0.0136
in o-xylene, 299.45 K	0.0158
in o-xylene, 303.25 K	0.0184
in o-xylene, 307.05 K	0.0214
in o-xylene, 310.35 K	0.0252
in o-xylene, 313.65 K	0.0298
in o-xylene, 317.55 K	0.0358
in o-xylene, 321.85 K	0.0443
in o-xylene, 326.25 K	0.0549
in o-xylene, 330.95 K	0.0677
in o-xylene, 335.05 K	0.0816
in p-xylene, 288.55 K	0.00855
in p-xylene, 291.65 K	0.00985
in p-xylene, 294.95 K	0.0115
in p-xylene, 298.45 K	0.0134
in p-xylene, 302.25 K	0.0158
in p-xylene, 306.05 K	0.0186
in p-xylene, 309.65 K	0.022
in p-xylene, 313.55 K	0.026
in p-xylene, 317.65 K	0.031
in p-xylene, 321.25 K	0.0371
in p-xylene, 325.25 K	0.0447
in p-xylene, 329.55 K	0.0539
in p-xylene, 334.25 K	0.0651
in toluene, 277.65 K	0.0065
in toluene, 281.95 K	0.00831
in toluene, 286.05 K	0.0101
in toluene, 290.05 K	0.0126
in toluene, 293.35 K	0.0146
in toluene, 296.45 K	0.0169
in toluene, 299.65 K	0.0194
in toluene, 302.75 K	0.0224
in toluene, 306.25 K	0.0263
in toluene, 309.95 K	0.0312
in toluene, 313.75 K	0.0373
in toluene, 317.65 K	0.0447
in toluene, 321.75 K	0.0536
in toluene, 325.45 K	0.0641
in toluene, 328.95 K	0.0761
in toluene, 332.25 K	0.0894
in toluene, 335.35 K	0.104
